# Reference: US11530218B2, “Spiro compounds as inhibitors of KRAS” (Incyte Corporation, priority 2020, dated 2022)
# How the values were obtained:
# KRAS G12D = KRAS G12D (Homo sapiens, UniProt P01116, G12D); assay: KRAS G12D GDP-GTP exchange assay (bodipy-GDP/GppNHp, SOS1); format: biochemical; conditions: bodipy loaded KRAS G12D 2.5 nM, 4 hours incubation after GppNHp-SOS1; read-out: G12D_exchange (KRAS_G12D exchange assay IC50)
# Protocol: The inhibitor potency of the exemplified compounds was determined in a fluorescence based guanine nucleotide exchange assay, which measures the exchange of bodipy-GDP (fluorescently labeled GDP) for GppNHp (Non-hydrolyzable GTP analog) to generate the active state of KRAS in the presence of SOS1 (guanine nucleotide exchange factor). Inhibitors were serially diluted in DMSO and a volume of 0.1 μL was transferred to the wells of a black low volume 384-well plate. 5 μL/well volume of bodipy-loaded KRAS G12C diluted to 5 nM in assay buffer (25 mM Hepes pH 7.5, 50 mM NaCl, 10 mM MgCl2 and 0.01% Brij-35) was added to the plate and pre-incubated with inhibitor for 2 hours at ambient temperature. Appropriate controls (enzyme with no inhibitor or with a G12C inhibitor (AMG-510)) were included on the plate. The exchange was initiated by the addition of a 5 μL/well volume containing 1 mM GppNHp and 300 nM SOS1 in assay buffer. The 10 μL/well reaction concentration of the bodipy-loaded KRAS G12C, GppNHp, and SOS1 were 2.5 nM, 500 uM, and 150 nM, respectively. The reaction plates were incubated at ambient temperature for 2 hours, a time estimated for complete GDP-GTP exchange in the absence of inhibitor. For the KRAS G12D and G12V mutants, similar guanine nucleotide exchange assays were used with 2.5 nM as final concentration for the bodipy loaded KRAS proteins and with 4 hours and 3 hours incubation after adding GppNHp-SOS1 mixture for G12D and G12V respectively. A cyclic peptide described to selectively bind G12D mutant (Sakamoto et al., BBRC 484.3 (2017), 605-611) or internal compounds with confirmed binding were used as positive controls in the assay plates. Fluorescence intensities were measured on a PheraStar plate reader instrument (BMG Labtech) with excitation at 485 nm and emission at 520 nm.
# Either GraphPad prism or XLfit was used to analyze the data. The IC50 values were derived by fitting the data to a four parameter logistic equation producing a sigmoidal dose-response curve with a variable Hill coefficient. Prism equation: Y=Bottom+(Top−Bottom)/(1+10^((Log IC50−X)*Hill slope)); XLfit equation: Y=(A+((B−A)/(1+((X/C)^D)))) where X is the logarithm of inhibitor concentration and Y is the response.
# [1] = test system: KRAS G12C (MIA PaCa-2 cells); assay: KRAS_G12C cellular pERK HTRF assay; format: cell-based, human; conditions: Homo sapiens, MIA PaCa-2; cells incubated with compound 4 hours; read-out: G12C_pERK (KRAS_G12C pERK assay IC50)
# Protocol: MIA PaCa-2 (KRAS G12C; ATCC® CRL-1420), A427 (KRAS G12D; ATCC® HTB53), HPAF-II (KRAS G12D; ATCC® CRL-1997) and NCI-H838 (KRAS WT; ATCC® CRL-5844) cells are purchased from ATCC and maintained in RPMI 1640 media supplemented with 10% FBS (Gibco/Life Technologies). The cells are plated at 5000 cells per well (8 uL) into Greiner 384-well low volume, flat-bottom, tissue culture treated white plates and incubated overnight at 37° C., 5% CO2. The next morning, test compound stock solutions are diluted in media at 3x the final concentration, and 4 uL are added to the cells. The plate is mixed by gentle rotation for 30 seconds (250 rpm) at room temperature. The cells are incubated with the KRAS G12C and G12D compounds for 4 hours or 2 hours respectively at 37° C., 5% CO2.
# 4 uL of 4× lysis buffer with blocking reagent (1:25) (Cisbio) are added to each well and plates are rotated gently (300 rpm) for 30 minutes at room temperature. 4 uL per well of Cisbio anti Phospho-ERK 1/2 d2 is mixed with anti Phospho-ERK 1/2 Cryptate (1:1) are added to each well, mixed by rotation and incubated overnight in the dark at room temperature. Plates are read on the Pherastar plate reader at 665 nm and 620 nm wavelengths. IC50 determination is performed by fitting the curve of inhibitor percent inhibition versus the log of the inhibitor concentration using the GraphPad Prism 7 software.
# KRAS G12D, sequence (P01116 1-188 isoform P01116-2 G12D): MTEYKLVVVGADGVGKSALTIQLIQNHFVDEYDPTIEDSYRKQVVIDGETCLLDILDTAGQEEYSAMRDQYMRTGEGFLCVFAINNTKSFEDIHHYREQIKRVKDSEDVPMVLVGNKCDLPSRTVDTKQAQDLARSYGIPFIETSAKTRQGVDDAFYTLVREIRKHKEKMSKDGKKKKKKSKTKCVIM
SMILES,IC50 (KRAS G12D) [µM],IC50 [1] [µM]
"CN(C)C1CN(c2nc3c(F)c(-c4cc(O)cc5ccccc45)c(CCCC#N)cc3c3c2NC(=O)C32CCCNC2)C1 (single isomer, unassigned) [Example 23b, 4-(4′-(3-(dimethylamino)azetidin-1-yl)-6′-fluoro-7′-(3-hydroxynaphthalen-1-yl)-2′-oxo-2′,3′-dihydrospiro[piperidine-3,1′-pyrrolo[2,3-c]quinolin]-8′-yl)butanenitrile]",0.1 to 1,–
"C=CC(=O)N1CCC2(CC1)Nc1c(cnc3c(F)c(-c4c(O)cccc4F)c(Cl)cc13)NC2=O [Example 1, 1-Acryloyl-9′-chloro-7′-fluoro-8′-(2-fluoro-6-hydroxyphenyl)-1′,4′-dihydro-3′H-spiro[piperidine-4,2′-pyrazino[2,3-c]quinolin]-3′-one]",–,1 to 5
"CN(C)C1CN(c2nc3c(F)c(-c4cc(O)cc5ccccc45)c(Cc4ccccc4C#N)cc3c3c2NC(=O)C32CCCNC2)C1 (single isomer, unassigned) [Example 27b, 2-((4′-(3-(dimethylamino)azetidin-1-yl)-6′-fluoro-7′-(3-hydroxynaphthalen-1-yl)-2′-oxo-2′,3′-dihydrospiro[piperidine-3,1′-pyrrolo[2,3-c]quinolin]-8′-yl)methyl)benzonitrile]",1 to 5,–
"CN1CCC[C@H]1COc1nc2c(F)c(-c3cc(O)cc4ccccc34)c(CCCC#N)cc2c2c1N(CCO)C(=O)C21CCCNC1 (single isomer, unassigned) [Example 34b]",1 to 5,–
"CN(C)C1CN(c2nc3c(F)c(-c4cc(O)cc5ccc(Cl)cc45)c(Cl)cc3c3c2NC(=O)C32CCCNC2)C1 (single isomer, unassigned) [Example 20b, 8′-chloro-7′-(7-chloro-3-hydroxynaphthalen-1-yl)-4′-(3-(dimethylamino)azetidin-1-yl)-6′-fluorospiro[piperidine-3,1′-pyrrolo[2,3-c]quinolin]-2′(3′H)-one]",1 to 5,–
"CN1CCC[C@H]1COc1nc2c(F)c(-c3cc(O)cc4ccccc34)c(CCCC#N)cc2c2c1NC(=O)C21CCCNC1 (single isomer, unassigned) [Example 32b]",1 to 5,–
"CN1CCC[C@H]1COc1nc2c(F)c(-c3cc(O)cc4ccccc34)c(CCCC#N)cc2c2c1N(CC(N)=O)C(=O)C21CCCNC1 (single isomer, unassigned) [Example 37b]",1 to 5,–
"CN(C)C1CN(c2nc3c(F)c(-c4cc(O)cc5ccccc45)c(Cc4ccccc4Cl)cc3c3c2NC(=O)C32CCCNC2)C1 (single isomer, unassigned) [Example 26b, 8′-(2-chlorobenzyl)-4′-(3-(dimethylamino)azetidin-1-yl)-6′-fluoro-7′-(3-hydroxynaphthalen-1-yl)spiro[piperidine-3,1′-pyrrolo[2,3-c]quinolin]-2′(3′H)-one]",1 to 5,–
"CN(C)C1CN(c2nc3c(F)c(-c4cc(O)cc5ccccc45)c(CCCC#N)cc3c3c2NC(=O)C32CNCCO2)C1 (single isomer, unassigned) [Example 31b, 4-(4′-(3-(dimethylamino)azetidin-1-yl)-6′-fluoro-7′-(3-hydroxynaphthalen-1-yl)-2′-oxo-2′,3′-dihydrospiro[morpholine-2,1′-pyrrolo[2,3-c]quinolin]-8′-yl)butanenitrile]",5 to 50,–
"CN1CCC[C@H]1COc1nc2c(F)c(-c3cc(O)cc4ccccc34)c(CCCC#N)cc2c2c1N(CC#N)C(=O)C21CCCNC1 (single isomer, unassigned) [Example 36a]",1 to 5,–
"CN(C)C1CN(c2nc3c(F)c(-c4cc(O)cc5ccccc45)c(CC#N)cc3c3c2NC(=O)C32CCCNC2)C1 (single isomer, unassigned) [Example 24a, 2-(4′-(3-(dimethylamino)azetidin-1-yl)-6′-fluoro-7′-(3-hydroxynaphthalen-1-yl)-2′-oxo-2′,3′-dihydrospiro[piperidine-3,1′-pyrrolo[2,3-c]quinolin]-8′-yl)acetonitrile]",1 to 5,–
"CN(C)C1CN(c2nc3c(F)c(-c4cc(O)cc5ccccc45)c(CCC#N)cc3c3c2NC(=O)C32CCCNC2)C1 (single isomer, unassigned) [Example 25b, 3-(4′-(3-(dimethylamino)azetidin-1-yl)-6′-fluoro-7′-(3-hydroxynaphthalen-1-yl)-2′-oxo-2′,3′-dihydrospiro[piperidine-3,1′-pyrrolo[2,3-c]quinolin]-8′-yl)propanenitrile]",1 to 5,–
"CN(C)C1CN(c2nc3c(F)c(-c4cc(O)cc5ccccc45)c(CCCC#N)cc3c3c2NC(=O)C32CCNC2)C1 (single isomer, unassigned) [Example 30b, 4-(4′-(3-(dimethylamino)azetidin-1-yl)-6′-fluoro-7′-(3-hydroxynaphthalen-1-yl)-2′-oxo-2′,3′-dihydrospiro[pyrrolidine-3,1′-pyrrolo[2,3-c]quinolin]-8′-yl)butanenitrile]",1 to 5,–
"CN(C)C1CN(c2nc3c(F)c(-c4cc(O)cc5ccccc45)c(Cl)cc3c3c2NC(=O)C32CC3CC2CN3)C1 (single isomer, unassigned) [Example 21b, 8′-chloro-4′-(3-(dimethylamino)azetidin-1-yl)-6′-fluoro-7′-(3-hydroxynaphthalen-1-yl)-5-azaspiro[bicyclo[2.2.1]heptane-2,1′-pyrrolo[2,3-c]quinolin]-2′(3′H)-one]",1 to 5,–
"CN1C(=O)C2(CCCNC2)c2c1c(OC[C@@H]1CCCN1C)nc1c(F)c(-c3cc(O)cc4ccccc34)c(CCCC#N)cc21 (single isomer, unassigned) [Example 33b]",1 to 5,–
"CN(C)C1CN(c2nc3c(F)c(-c4cc(O)cc5ccccc45)c(CCCC#N)cc3c3c2NCC32CCCNC2)C1 (single isomer, unassigned) [Example 28b, 4-(4′-(3-(dimethylamino)azetidin-1-yl)-6′-fluoro-7′-(3-hydroxynaphthalen-1-yl)-2′,3′-dihydrospiro[piperidine-3,1′-pyrrolo[2,3-c]quinolin]-8′-yl)butanenitrile]",1 to 5,–
"Cc1cc2c3c(c(N4CC(N(C)C)C4)nc2c(F)c1-c1cc(O)cc2ccccc12)NC(=O)C31CCCNC1 (single isomer, unassigned) [Example 19b, 4′-(3-(dimethylamino)azetidin-1-yl)-6′-fluoro-7′-(3-hydroxynaphthalen-1-yl)-8′-methylspiro[piperidine-3,1′-pyrrolo[2,3-c]quinolin]-2′(3′H)-one]",1 to 5,–
"CN(C)C1CN(c2nc3c(F)c(-c4cc(O)cc5ccccc45)c(Cl)cc3c3c2NC(=O)C32CC(N)C2)C1 (stereo not shown) [Example 22, 3-amino-8′-chloro-4′-(3-(dimethylamino)azetidin-1-yl)-6′-fluoro-7′-(3-hydroxynaphthalen-1-yl)spiro[cyclobutane-1,1′-pyrrolo[2,3-c]quinolin]-2′(3′H)-one]",5 to 50,–
"CN(C)C1CN(c2nc3c(F)c(-c4cc(O)cc5ccccc45)c(CCC#N)cc3c3c2NC(=O)C32CNC2)C1 [Example 29, 3-(4′-(3-(dimethylamino)azetidin-1-yl)-6′-fluoro-7′-(3-hydroxynaphthalen-1-yl)-2′-oxo-2′,3′-dihydrospiro[azetidine-3,1′-pyrrolo[2,3-c]quinolin]-8′-yl)propanenitrile]",1 to 5,–
